{"source": "patent US12268702B2", "about": "“Antitumor pharmaceutical composition comprising azvudine and chemotherapeutic agent” (HENAN GENUINE BIOTECH CO., LTD., priority 2023, dated 2025)", "format_in_all_cases": "in vivo", "key": {"[1]": {"test_system": "OVCAR-8 human ovarian cancer model", "test": "OVCAR-8 human ovarian cancer subcutaneous xenograft tumor model", "details": "azvudine 1 mg/kg, paclitaxel 15 mg/kg, avastin 10 mg/kg, combinations 1 + 15 and 1 + 10 mg/kg; for T/C (%) / TGI (%) / Tumor volume (x ± S): 34th day after grouping; for average tumor volume: 34th day of administration", "procedure": "(§1) OVCAR-8 cells were cultured in RPMI1640 medium containing 10% fetal bovine serum. OVCAR-8 cells in the exponential growth phase were collected, resuspended in PBS to an appropriate concentration and mixed with Matrigel at a ratio of 1:1. The resulting mixture was used for subcutaneous inoculation of tumor in mice.\n1×10^7 OVCAR-8 cells were inoculated subcutaneously on the right side of female mice. When the average tumor volume achieved 174.25 mm^3, the mice were randomly divided into groups according to tumor size.\nThe experimental protocols for animal experiments in this experiment were reviewed and approved by the CrownBio IACUC committee. During the experiment, the animal experiments were performed in accordance with the requirements of AAALAC. After tumor inoculation was completed, the impact of tumor growth and treatment on normal behavior of animals was routinely monitored, specifically the activity of experimental animals, food intake and water intake, body weight gain or loss (body weight was measured twice a week), eye, hair and other abnormalities. The clinical symptoms observed during the experiment were recorded in the original data. The tumor volume was calculated according to the following formula: tumor volume (mm^3)=½×(a×b^2) (where a represents long diameter and b represents short diameter).\nRelative tumor proliferation rate, T/C %, refers to the percentage value of the relative tumor volume or tumor weight of the treatment group and the control group at a certain time point, which was calculated as follows: • T/C %=TRTV/CRTV×100% (TRTV: the average RTV of the treatment group; CRTV: the average RTV of the vehicle control group; RTV=Vt/V0, where V0 is the tumor volume of the animal when grouped, and Vt is the tumor volume of the animal after treatment); • or T/C %=TTW/CTW×100% (TTW: the average tumor weight of the treatment group at the end of the experiment; CTW: the average tumor weight of the vehicle control group at the end of the experiment).\nRelative tumor inhibition rate, TGI (%), was calculated according to the formula as follows: TGI %=(1−T/C)×100%. (T and C are the relative tumor volumes (RTV) or tumor weights (TW) of the treatment group and the control group at a specific time point).\nTo compare tumor volumes of different treatment groups on a given day, first the assumption of homogeneity of variance among all groups was tested using the Bartlett test. When the p-value of Bartlett's test was not less than 0.05, whether all group means were equal was tested using one-way ANOVA. If the p-value of the one-way ANOVA was less than 0.05, pairwise comparisons among all groups were conducted using Tukey's HSD test, or pairwise comparisons between each treatment group and control group were conducted using Dunnett's t-test. When the p-value of Bartlett's test was less than 0.05, whether the medians of all groups were equal was tested using Kruskal Wallis test. If the p-value of the Kruskal Wallis test was less than 0.05, pairwise comparisons among all groups or between each treatment group and control group were conducted using Conover test, and the corresponding p-value correction was performed according to the number of groups in the multiple test."}, "[2]": {"test_system": "Daudi xenograft tumor model", "test": "Human Burkitt's lymphoma cell Daudi subcutaneous xenograft tumor model", "details": "combination 1 + 50 mg/kg; for Tumor volume (mm^3) on the 27th day: CB 17 SCID mice, QD x 4 weeks, azvudine 1 mg/kg p.o., cyclophosphamide 50 mg/kg i.p.", "procedure": "(§2) Human Burkitt's lymphoma cells Daudi (Cat. No.: DSMZ-ACC129) were in vitro suspended and cultured in RPMI 1640 medium containing 10% fetal bovine serum, 2 mM glutamine, 100 U/mL penicillin and 100 μg/mL streptomycin, in a 37° C. and 5% CO2 incubator. When the cell saturation achieved 80%-90% and the cell number reached the requirement, the cells were collected, counted and inoculated.\n0.2 mL (10×10^6) of Daudi cells (added with Matrigel at a volume ratio of 1:1) were subcutaneously inoculated on the right back of each mouse. The grouping administration was started when the average tumor volume reached about 100 mm^3.\nThe changes of tumor volume and tumor weight in each group after administration of test drugs for treating CB 17 SCID mice with Daudi cell subcutaneous xenograft tumor are shown in Table 8 and Table 9 respectively."}, "[3]": {"test_system": "MOLT4 xenograft tumor model", "test": "Human acute lymphoblastic leukemia MOLT4 cell subcutaneous xenograft tumor model", "details": "combination 1 + 50 mg/kg; for Tumor volume (mm^3) on the 28th day: SCID Beige mice, QD x 4 weeks, azvudine 2 mg/kg in Table 10, cyclophosphamide 50 mg/kg i.p.", "procedure": "as §2, with “acute lymphoblastic leukemia” for “Burkitt's lymphoma”, “MOLT4” for “Daudi”, “ECACC-85011413)” for “DSMZ-ACC129)”, “serum,” for “serum, 2 mM glutamine,”\n0.2 mL (10×10^6) of MOLT4 cells (added with Matrigel at a volume ratio of 1:1) were subcutaneously inoculated on the right back of each mouse. The grouping administration was started when the average tumor volume reached about 148 mm^3.\nThe changes of tumor volume and tumor weight in each group after administration of test drugs for treating SCID Beige mice with MOLT4 cell subcutaneous xenograft tumor are shown in Table 10 and Table 11."}, "[4]": {"test_system": "LoVo xenograft tumor model", "test": "LoVo human colon cancer subcutaneous xenograft tumor model", "details": "21st day of administration, azvudine 1 mpk, capecitabine 400 mpk, combination 1 + 400 mpk; for Tumor volume (mm^3): BALB/c nude mice, p.o. QD x 3 weeks", "procedure": "Human colon cancer cells LoVo (Cat. No.: ECACC-87060101) were cultured in vitro as a monolayer in F12K medium containing 10% fetal bovine serum, 100 U/mL penicillin and 100 μg/mL streptomycin, in a 37° C. and 5% CO2 incubator. The cells were routinely digested with trypsin-EDTA and passaged twice a week. When the cell saturation reached 80%-90% and the cell number achieved the requirement, the cells were collected, counted and inoculated.\n0.1 mL)(10×10^6) of LoVo cells were subcutaneously inoculated on the right back of each mouse. The grouping administration was started when the average tumor volume reached about 147 mm^3.\nThe tumor volume changes and the tumor weight changes in each group (on the 21st day of administration) after administration of test drugs for treating BALB/c nude mice with Lovo cell subcutaneous xenograft tumor are shown in Table 5 and Table 6 respectively."}, "[5]": {"test_system": "Colo 205 human colon cancer model", "test": "Colo 205 human colon cancer subcutaneous xenograft tumor model", "procedure": "Experimental animals were 68 (48 plus 20 spare mice) BALB/c female nude mice, 7-8 weeks old (the age of mice at the time of tumor cell inoculation) and weighing 15.7-20.7 g, which were purchased from Beijing VitalRiver Experimental Animal Technology Co., Ltd. Breeding environment was SPF grade. The experimental animals were all kept in an independent ventilated box with constant temperature and humidity. The temperature of the breeding room was 20-26° C., the humidity was 40-70%. The breeding room was ventilated 10-20 times per hour. The alternating time of day and night was 12 h/12 h. The mice were continuously supplied with cobalt 60 radiation sterilized mouse complete pellet feed, and had free access to the feed. The mice drank tap water (available after sterilization with high-pressure steam), which was continuously supplied using a water-drinking bottle, and had free access to water. The mouse box was a polysulfone mouse box, which was used after sterilization under high pressure, with a size of 325 mm×210 mm×180 mm.\nas §1, with “Colo 205” for “OVCAR-8”, “mice. 5×10^6 Colo 205 cells were subcutaneously inoculated on the right side of female mice. The day of inoculation was defined as Day 0. When the average tumor volume reached 110.26 mm^3, the mice were randomly divided into groups according to tumor size.” for “mice.”\nRelative tumor proliferation rate, T/C %, refers to the percentage value of the relative tumor volume or tumor weight of the treatment group and the control group at a certain time point, which was calculated as follows:\nT/C %=TRTV/CRTV×100% (TRTV: the average RTV of the treatment group; CRTV: the average RTV of the vehicle control group; RTV=Vt/V0, where V0 is the tumor volume of the animal when grouped, and Vt is the tumor volume of the animal after treatment); • or T/C %=TTW/CTW×100% (TTW: the average tumor weight of the treatment group at the end of the experiment; CTW: the average tumor weight of the vehicle control group at the end of the experiment). • Relative tumor inhibition rate, TGI (%), was calculated according to the formula as follows: TGI %=(1−T/C)×100%. (T and C are the relative tumor volumes (RTV) or tumor weights (TW) of the treatment group and the control group at a specific time point)."}, "[6]": {"details": "based on tumor volume, 27th day, azvudine 1 mg/kg, cyclophosphamide 50 mg/kg"}, "[7]": {"details": "based on tumor volume, 28th day, azvudine 2 mg/kg in Table 10, cyclophosphamide 50 mg/kg"}, "[8]": {"details": "based on tumor volume, 25th day after inoculation, p.o. QD x 3 weeks, azvudine 1 mpk, capecitabine 400 mpk, combination 1 + 400 mpk"}, "[9]": {"details": "based on tumor weight, azvudine 1 mpk, capecitabine 400 mpk, combination 1 + 400 mpk"}}, "note": "“And” between values parts separate entries of the source, which are not always exact repeats. Equal entries are not always repeated.", "data": [{"compound": "Avastin: positive drug avastin", "values": [{"measurement": "T/C (%)", "setting": "[1]", "result": 82.30, "unit": "%"}, {"measurement": "TGI (%)", "setting": "[1]", "result": 17.70, "unit": "%"}, {"measurement": "Tumor volume (x ± S)", "setting": "[1]", "result": "456.04 ± 110.65(6)"}, {"measurement": "average tumor volume", "setting": "[1]", "result": 456.04, "unit": "mm^3"}]}, {"compound": "O=P1(N(CCCl)CCCl)NCCCO1", "note": "(centres unmarked) [Cyclophosphamide, cyclophosphamide]", "values": [{"measurement": "Tumor volume (mm^3) on the 27th day", "setting": "[2]; 27th day of administration", "result": "263 ± 54", "unit": "mm^3"}, {"measurement": "Tumor volume (mm^3) on the 27th day", "setting": "[2]; 27th day of administration, listed as cyclophosphamide", "result": 263, "unit": "mm^3"}, {"measurement": "Tumor weight (g) (On the 27th day)", "setting": "[2]; 27th day of administration, azvudine 1 mg/kg, cyclophosphamide 50 mg/kg", "result": "0.343 ± 0.066", "unit": "g"}, {"measurement": "T/C (%)", "setting": "[2]; [6]", "result": 8.83, "unit": "%"}, {"measurement": "TGI (%)", "setting": "[2]; [6]", "result": 94.17, "unit": "%"}, {"measurement": "T/Cweight (%)", "setting": "[2]; based on tumor weight, 27th day, azvudine 1 mg/kg, cyclophosphamide 50 mg/kg", "result": 11.49, "unit": "%"}, {"measurement": "Tumor volume (mm^3) on the 28th day", "setting": "[3]; 28th day of administration", "result": "716 ± 76", "unit": "mm^3"}, {"measurement": "Tumor volume (mm^3) on the 28th day", "setting": "[3]; 28th day of administration, listed as cyclophosphamide CTX", "result": 716, "unit": "mm^3"}, {"measurement": "Tumor weight (g) (On the 28th day)", "setting": "[3]; 28th day of administration, azvudine 1 mg/kg, cyclophosphamide 50 mg/kg", "result": "0.822 ± 0.065", "unit": "g"}, {"measurement": "T/C (%)", "setting": "[3]; [7]", "result": 24.53, "unit": "%"}, {"measurement": "TGI (%)", "setting": "[3]; [7]", "result": 79.34, "unit": "%"}, {"measurement": "T/Cweight (%)", "setting": "[3]; based on tumor weight, 28th day, azvudine 1 mg/kg, cyclophosphamide 50 mg/kg", "result": 27.65, "unit": "%"}]}, {"compound": "CC(=O)O[C@H]1C(=O)[C@@]2(C)[C@H]([C@H](OC(=O)c3ccccc3)[C@]3(O)C[C@H](OC(=O)[C@H](O)[C@@H](NC(=O)c4ccccc4)c4ccccc4)C(C)=C1C3(C)C)[C@]1(OC(C)=O)CO[C@@H]1C[C@@H]2O", "note": "[Paclitaxel, paclitaxel]", "values": [{"measurement": "T/C (%)", "setting": "[1]", "result": 73.51, "unit": "%"}, {"measurement": "TGI (%)", "setting": "[1]", "result": 26.49, "unit": "%"}, {"measurement": "Tumor volume (x ± S)", "setting": "[1]", "result": "403.40 ± 69.43(6)"}, {"measurement": "TGI (%)", "setting": "[1]; listed as paclitaxel", "result": "26.49% and 26.5%"}, {"measurement": "average tumor volume", "setting": "[1]", "result": 403.40, "unit": "mm^3"}]}, {"compound": "CCCCCOC(=O)Nc1nc(=O)n([C@@H]2O[C@H](C)[C@@H](O)[C@H]2O)cc1F", "note": "[Capecitabine, capecitabine]", "values": [{"measurement": "Tumor volume (mm^3)", "setting": "[4]", "result": "919 ± 190", "unit": "mm^3"}, {"measurement": "Tumor volume (mm^3)", "setting": "[4]; listed as capecitabine", "result": 919, "unit": "mm^3"}, {"measurement": "Tumor weight", "setting": "[4]", "result": "0.893 ± 0.173", "unit": "g"}, {"measurement": "T/C (%)", "setting": "[4]; based on tumor volume", "result": 60.94, "unit": "%"}, {"measurement": "TGI (%)", "setting": "[4]; based on tumor volume", "result": 42.11, "unit": "%"}, {"measurement": "TGI (%)", "setting": "[4]; based on tumor volume, listed as capecitabine", "result": "42.11% and 42.1%"}, {"measurement": "T/C (%)", "setting": "[4]; based on tumor weight", "result": 63.27, "unit": "%"}, {"measurement": "Tumor volume", "setting": "[5]; 25th day after inoculation (20th day after grouping), BALB/c nude mice, p.o. QD x 3 weeks, azvudine 1 mpk, capecitabine 400 mpk, combination 1 + 400 mpk", "result": "264.96 ± 38.65(6)"}, {"measurement": "average tumor volume", "setting": "[5]; 25th day after tumor inoculation (20th day after grouping), azvudine 1 mg/kg, capecitabine 400 mg/kg, combination 1 + 400 mg/kg", "result": 264.96, "unit": "mm^3"}, {"measurement": "T/C (%)", "setting": "[5]; [8]", "result": 18.07, "unit": "%"}, {"measurement": "TGI (%)", "setting": "[5]; [8]", "result": 81.93, "unit": "%"}, {"measurement": "T/C (%)", "setting": "[5]; [9]", "result": 85.92, "unit": "%"}, {"measurement": "TGI", "setting": "[5]; [9]", "result": 14.08}, {"measurement": "Tumor weight (mg)", "setting": "[5]; end of experiment, p.o. QD x 3 weeks, azvudine 1 mpk, capecitabine 400 mpk, combination 1 + 400 mpk", "result": "193.35 ± 28.54(6) mg"}]}]}
